Laboratory results published in patent EP4206196A1, “PYRIMIDINE SUBSTITUTED DERIVATIVES AS TYK2 INHIBITORS” (Almirall S.A., priority 2021, dated 2023).

Columns and labels:
[1] = biological target: T1, TYK2 (JH2domain-pseudokinase) (Homo sapiens, UniProt P29597); assay: TYK2 JH2 domain binding assay (KINOMEscan)
T1 construct: TYK2 (JH2domain-pseudokinase)-tagged T7 phage strains were prepared in an E. coli host derived from the BL21 strain; made in house; host or cells: E. coli BL21-derived host (T7 phage) or HEK-293 cells
T1 sequence (P29597 589-875 limits assumed): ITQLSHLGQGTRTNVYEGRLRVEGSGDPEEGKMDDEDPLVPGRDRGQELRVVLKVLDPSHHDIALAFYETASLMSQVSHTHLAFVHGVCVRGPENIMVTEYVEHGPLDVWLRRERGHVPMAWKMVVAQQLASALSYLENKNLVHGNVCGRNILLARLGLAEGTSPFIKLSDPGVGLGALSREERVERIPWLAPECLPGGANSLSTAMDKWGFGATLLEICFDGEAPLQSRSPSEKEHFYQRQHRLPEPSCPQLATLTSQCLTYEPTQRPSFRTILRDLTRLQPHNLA
Summary of the method: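 Competition binding of DNA-tagged TYK2 JH2 pseudokinase domain against immobilised affinity ligand, 1 h at room temperature in SeaBlock/PBS/Tween/DTT buffer with about 1% DMSO. Bound kinase eluted and quantified by qPCR. Kd taken from 11-point 3-fold series, usually 30,000 nM top, fitted by Levenberg-Marquardt nonlinear least squares.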

[2] = tested on: STAT1/3 through TYK2/JAK1; assay: IFNa induced STAT phosphorylation in HEK293 cells (SIE-bla reporter gene); assay type: cell-based; details: Homo sapiens, HEK293; HEK293T-sie-bla cells, IFNa at EC80, 4 hours; read-out: Inhibition of IFNa induced STAT phosphorylation HEK293 cells IC50
Summary of the method: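 HEK293T cells carrying a SIE-driven β-lactamase reporter were co-treated with compound (1/5 serial dilution, 10 points, 0.1% DMSO final) and IFNa at EC80 for 4 h at 37°C. β-Lactamase substrate was added to stop the stimulation, followed by overnight dark incubation and FRET read. IC50 from a four-parameter logistic fit.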

Compound | Kd [1] | IC50 [2]
Cc1cc(Nc2cc(Nc3ncc(-c4cnc(C)n4C)cc3N(C)S(C)(=O)=O)ncn2)nc(C)n1 [Example 142, N-[5-(2,3-dimethylimidazol-4-yl)-2-[[6-[(2,6-dimethylpyrimidin-4-yl)amino]pyrimidin-4-yl]amino]-3-pyridyl]-N-methyl-methanesulfonamide] | < 0.2 nM | 10 to 100 nM
COc1c(Nc2cc(Nc3cc(C)nc(C)n3)ncn2)cccc1-c1nc(C)nn1C [Example 40, N6-(2,6-dimethylpyrimidin-4-yl)-N4-[3-(2,5-dimethyl-1,2,4-triazol-3-yl)-2-methoxy-phenyl]pyrimidine-4,6-diamine] | 1 to 10 nM | 100 to 1000 nM
Cc1cc(Nc2cc(Nc3nc(C)ccc3S(C)(=O)=O)ncn2)ncn1 [Example 156, N6-(6-methyl-3-methylsulfonyl-2-pyridyl)-N4-(6-methylpyrimidin-4-yl)pyrimidine-4,6-diamine] | 1 to 10 nM | > 1000 nM
COc1cc(-c2nccn2C)ccc1Nc1cc(Nc2cc(C)nc(C)n2)ncn1 [Example 91, N4-(2,6-dimethylpyrimidin-4-yl)-N6-[2-methoxy-4-(1-methylimidazol-2-yl)phenyl]pyrimidine-4,6-diamine] | 1 to 10 nM | 100 to 1000 nM
COc1ccccc1Nc1cc(Nc2cc(C)nc(C)n2)ncn1 [Example 23, N6-(2,6-dimethylpyrimidin-4-yl)-N4-(2-methoxyphenyl)pyrimidine-4,6-diamine] | 1 to 10 nM | 100 to 1000 nM
COc1cc(-c2cn(C)cn2)ccc1Nc1cc(Nc2cc(C)nc(C)n2)ncn1 [Example 90, N4-(2,6-dimethylpyrimidin-4-yl)-N6-[2-methoxy-4-(1-methylimidazol-4-yl)phenyl]pyrimidine-4,6-diamine] | 1 to 10 nM | > 1000 nM
Cc1cc(Nc2cc(Nc3ccc(C4=CCCOC4)cc3N(C)S(C)(=O)=O)ncn2)nc(C)n1 [Example 94, N-[5-(3,6-dihydro-2H-pyran-5-yl)-2-[[6-[(2,6-dimethylpyrimidin-4-yl)amino]pyrimidin-4-yl]amino]phenyl]-N-methyl-methanesulfonamide] | < 0.2 nM | < 10 nM
Cc1cc(Nc2cc(Nc3ccccc3N(C)S(C)(=O)=O)ncn2)ncc1F [Example 101, N-[2-[[6-[(5-fluoro-4-methyl-2-pyridyl)amino]pyrimidin-4-yl]amino]phenyl]-N-methyl-methanesulfonamide] | < 0.2 nM | 10 to 100 nM
Cc1cc(Nc2cc(Nc3ncc(-c4cn(C)cn4)cc3N(C)S(C)(=O)=O)ncn2)nc(C)n1 [Example 147, N-[2-[[6-[(2,6-dimethylpyrimidin-4-yl)amino]pyrimidin-4-yl]amino]-5-(1-methylimidazol-4-yl)-3-pyridyl]-N-methyl-methanesulfonamide] | < 0.2 nM | 10 to 100 nM
CN=S(C)(=O)c1c(C)cccc1Nc1cc(Nc2cc(C)nc(C)n2)ncn1 (stereo not shown) [Example 116, N6-(2,6-dimethylpyrimidin-4-yl)-N4-[2-(N,S-dimethylsulfonimidoyl)-3-methyl-phenyl]pyrimidine-4,6-diamine] | 0.2 to 1 nM | 10 to 100 nM
Cc1cc(Nc2cc(Nc3c(F)cc(-c4cnn(C)c4C)cc3S(C)(=O)=O)ncn2)nc(C)n1 [Example 96, N4-[4-(1,5-dimethylpyrazol-4-yl)-2-fluoro-6-methylsulfonyl-phenyl]-N6-(2,6-dimethylpyrimidin-4-yl)pyrimidine-4,6-diamine] | 1 to 10 nM | 100 to 1000 nM
COc1cc(-c2cnn(C)c2C)cnc1Nc1cc(Nc2cc(C)nc(C)n2)ncn1 [Example 146, N6-[5-(1,5-dimethylpyrazol-4-yl)-3-methoxy-2-pyridyl]-N4-(2,6-dimethylpyrimidin-4-yl)pyrimidine-4,6-diamine] | < 0.2 nM | < 10 nM
COc1c(Nc2cc(Nc3cc(C)nc(C)n3)ncn2)ccc(F)c1F [Example 19, N4-(3,4-difluoro-2-methoxy-phenyl)-N6-(2,6-dimethylpyrimidin-4-yl)pyrimidine-4,6-diamine] | 1 to 10 nM | > 1000 nM
Cc1c(-c2cnc(Nc3cc(NC(=O)[C@H]4C[C@H]4F)ncn3)c(N(C)S(C)(=O)=O)c2)cnn1C [Example 160, (1R,2R)-N-[6-[[5-(1,5-dimethylpyrazol-4-yl)-3-[methyl(methylsulfonyl)amino]-2-pyridyl]amino]pyrimidin-4-yl]-2-fluoro-cyclopropanecarboxamide] | < 0.2 nM | 10 to 100 nM
Cc1cc(Nc2cc(Nc3ccc(C(=O)N(C)C)cc3N(C)S(C)(=O)=O)ncn2)nc(C)n1 [Example 77, 4-[[6-[(2,6-dimethylpyrimidin-4-yl)amino]pyrimidin-4-yl]amino]-N,N-dimethyl-3-[methyl(methylsulfonyl)amino]benzamide] | < 0.2 nM | 10 to 100 nM
COc1cc(-c2noc(C)n2)ccc1Nc1cc(Nc2cc(C)nc(C)n2)ncn1 [Example 93, N6-(2,6-dimethylpyrimidin-4-yl)-N4-[2-methoxy-4-(5-methyl-1,2,4-oxadiazol-3-yl)phenyl]pyrimidine-4,6-diamine] | 1 to 10 nM | > 1000 nM
Cc1cc(Nc2cc(Nc3ncc(-c4cnn(C)c4C)c(C)c3S(C)(=O)=O)ncn2)nc(C)n1 [Example 153, N6-[5-(1,5-dimethylpyrazol-4-yl)-4-methyl-3-methylsulfonyl-2-pyridyl]-N4-(2,6-dimethylpyrimidin-4-yl)pyrimidine-4,6-diamine] | < 0.2 nM | < 10 nM
COc1c(Br)cccc1Nc1cc(Nc2cc(C)nc(C)n2)ncn1 [Example 50, N6-(3-bromo-2-methoxy-phenyl)-N4-(2,6-dimethylpyrimidin-4-yl)pyrimidine-4,6-diamine] | 1 to 10 nM | 100 to 1000 nM
COc1c(Nc2cc(Nc3cc(C)nc(C)n3)ncn2)cccc1-c1noc(CN2CCOCC2)n1 [Example 62, N6-(2,6-dimethylpyrimidin-4-yl)-N4-[2-methoxy-3-[5-(morpholinomethyl)-1,2,4-oxadiazol-3-yl]phenyl]pyrimidine-4,6-diamine] | < 0.2 nM | 10 to 100 nM
CN=S(C)(=O)c1cc(-c2cnn(C)c2C)ccc1Nc1cc(Nc2cc(C)nc(C)n2)ncn1 (stereo not shown) [Example 113, N4-[4-(1,5-dimethylpyrazol-4-yl)-2-(N,S-dimethylsulfonimidoyl)phenyl]-N6-(2,6-dimethylpyrimidin-4-yl)pyrimidine-4,6-diamine] | < 0.2 nM | < 10 nM
COc1c(Nc2cc(Nc3cc(C)nc(C)n3)ncn2)ccc(F)c1-c1ncn(C)n1 [Example 64, N4-(2,6-dimethylpyrimidin-4-yl)-N6-[4-fluoro-2-methoxy-3-(1-methyl-1,2,4-triazol-3-yl)phenyl]pyrimidine-4,6-diamine] | 0.2 to 1 nM | 100 to 1000 nM
COc1c(Nc2cc(Nc3cc(C)nc(C)n3)ncn2)cccc1-c1nc(C)n(C)n1 [Example 39, N6-(2,6-dimethylpyrimidin-4-yl)-N4-[3-(1,5-dimethyl-1,2,4-triazol-3-yl)-2-methoxy-phenyl]pyrimidine-4,6-diamine] | 0.2 to 1 nM | 100 to 1000 nM
COc1c(Nc2cc(Nc3cc(C)nc(C)n3)ncn2)ccc(-c2ncn(C)n2)c1C [Example 83, N6-(2,6-dimethylpyrimidin-4-yl)-N4-[2-methoxy-3-methyl-4-(1-methyl-1,2,4-triazol-3-yl)phenyl]pyrimidine-4,6-diamine] | 1 to 10 nM | > 1000 nM
Cc1cc(Nc2cc(Nc3cccc(F)c3N(C)S(C)(=O)=O)ncn2)nc(C)n1 [Example 76, N-[2-[[6-[(2,6-dimethylpyrimidin-4-yl)amino]pyrimidin-4-yl]amino]-6-fluorophenyl]-N-methylmethanesulfonamide] | < 0.2 nM | 10 to 100 nM
COCc1nc(-c2cccc(Nc3cc(Nc4cc(C)nc(C)n4)ncn3)c2OC)no1 [Example 30, N4-(2,6-dimethylpyrimidin-4-yl)-N6-[2-methoxy-3-[5-(methoxymethyl)-1,2,4-oxadiazol-3-yl]phenyl]pyrimidine-4,6-diamine] | 0.2 to 1 nM | 100 to 1000 nM
Cc1cc(Nc2cc(Nc3ncc(-c4cc(C(F)(F)F)nn4C)cc3N(C)S(C)(=O)=O)ncn2)nc(C)n1 [Example 87, N-[2-[[6-[(2,6-dimethylpyrimidin-4-yl)amino]pyrimidin-4-yl]amino]-5-[2-methyl-5-(trifluoromethyl)pyrazol-3-yl]-3-pyridyl]-N-methyl-methanesulfonamide] | 0.2 to 1 nM | > 1000 nM
[2H]C([2H])([2H])N(c1cccnc1Nc1cc(Nc2cc(C)nc(C)n2)ncn1)S(C)(=O)=O [Example 121, N-[2-[[6-[(2,6-dimethylpyrimidin-4-yl)amino]pyrimidin-4-yl]amino]-3-pyridyl]-N-(trideuteriomethyl)methanesulfonamide] | < 0.2 nM | 10 to 100 nM
Cc1cc(Nc2cc(Nc3ncccc3C(C)(C)O)ncn2)nc(C)n1 [Example 172, 2-[2-[[6-[(2,6-dimethylpyrimidin-4-yl)amino]pyrimidin-4-yl]amino]pyridin-3-yl]propan-2-ol] | 0.2 to 1 nM | 100 to 1000 nM
Cc1cc(Nc2cc(Nc3ncc(-c4ccnn4C)cc3N(C)S(C)(=O)=O)ncn2)nc(C)n1 [Example 127, N-[2-[[6-[(2,6-dimethylpyrimidin-4-yl)amino]pyrimidin-4-yl]amino]-5-(2-methylpyrazol-3-yl)-3-pyridyl]-N-methyl-methanesulfonamide] | 0.2 to 1 nM | 10 to 100 nM
